Source: patent US20200179428A1, “CYCLIC PHOSPHATE SUBSTITUTED NUCLEOSIDE DERIVATIVES AND METHODS OF USE THEREOF FOR THE TREATMENT OF VIRAL DISEASES” (priority 2016, published 2020)
Where two headings read alike, the source gives them in different places.

Experiments:
replicon cells (1b-Con1) = assay: Replicon activity assay (replicon RNA level by real-time RT-PCR, Taqman); assay type: cell-based; settings: HCV replicon genotype 1b, read-out: EC50 (1b) Range
Procedure: (§1) To measure cell-based anti-HCV activity of the compounds of the present invention, replicon cells (1b-Con1) are seeded at 5000 cells/well in 96-well plates one day prior to treatment with a compound of the invention. Various concentrations of a test compound of the invention in DMSO are then added to the replicon cells, with the final concentration of DMSO at 0.5% and fetal bovine serum at 10% in the assay media. Cells are harvested three days post-dosing, and the replicon RNA level is determined using real-time RT-PCR (Taqman assay) with GAPDH RNA as endogenous control. EC50 values are calculated from experiments with 10 serial twofold dilutions of the inhibitor in triplicate. To measure cytotoxicity in replicon cells of an inhibitor, an MTS assay is performed according to the manufacturer's protocol for CellTiter 96 Aqueous One Solution Cell Proliferation Assay (Promega, Cat # G3580) three days post dosing on cells treated identically as in replicon activity assays. […] Cytotoxicity in other types of cells may be measured using the same MTS protocol.

[1] = Cytotoxicity MTS assay (CellTiter 96 Aqueous One Solution) in replicon cells; assay type: cell-based; settings: EDU, read-out: CC50 (EDU) Range; for CC50 at 3 days: HCV replicon cells (1b-Con1)
Procedure: as §1

Row | Compound | EC50 (replicon cells (1b-Con1); Hepatitis C virus) | CC50 at 3 days [1] | CC50 [1] | EC50 (replicon cells (1b-Con1))
1 | CC(C)OC(=O)C[C@H](F)CO[P@@]1(=O)OC[C@H]2O[C@@H](n3ccc(=O)[nH]c3=O)[C@](C)(N)[C@@H]2O1 [Compound 65A] | > 10 µM | > 50 µM | – | –
2 | CC(C)OC(=O)C1(CCO[P@@]2(=O)OC[C@H]3O[C@@H](n4ccc(=O)[nH]c4=O)[C@](C)(N)[C@@H]3O2)CC1 [Compound 27A] | > 10 µM | > 50 µM | – | –
3 | CC(C)OC(=O)[C@@H](C)CCO[P@@]1(=O)OC[C@H]2O[C@@H](n3cnc4c(N)ncnc43)[C@](C)(N)[C@@H]2O1 [Compound 73A] | > 10 µM | > 50 µM | – | –
4 | COC(=O)N[C@H](CO[P@]1(=O)OC[C@H]2O[C@@H](n3ccc(=O)[nH]c3=O)[C@](C)(C#N)[C@@H]2O1)C(=O)OC(C)C [Compound 41B] | > 10 µM | > 50 µM | – | –
5 | C#C[C@]1(C)[C@@H]2OP(=O)(OCCC(C)C(=O)OC3CCCC3)OC[C@H]2O[C@H]1n1ccc(=O)[nH]c1=O (single isomer, unassigned) [Compound 2B] | ≤ 0.25 µM | > 50 µM | – | –
6 | CO[C@H](CO[P@]1(=O)OC[C@H]2O[C@@H](n3ccc(=O)[nH]c3=O)[C@](C)(N)[C@@H]2O1)CC(=O)OC(C)C [Compound 61B] | > 10 µM | > 50 µM | – | –
7 | CC(C)OC(=O)C1(CCO[P@]2(=O)OC[C@H]3O[C@@H](n4ccc(=O)[nH]c4=O)[C@](C)(N)[C@@H]3O2)CC1 [Compound 27B] | > 10 µM | > 50 µM | – | –
8 | C#C[C@]1(C)[C@@H]2OP(=O)(OCCC(C)C(=O)OC(C)C)OC[C@H]2O[C@H]1n1ccc(=O)[nH]c1=O (stereo partly shown) [Compound 1A] | 1 to 10 µM | – | > 50 µM | –
9 | C#C[C@@]1(OC(=O)CCC)[C@@H]2O[P@@](=O)(OCC[C@@H](C)C(=O)OC(C)C)OC[C@H]2O[C@H]1n1ccc(=O)[nH]c1=O [Compound 83A1] | ≤ 0.25 µM | > 50 µM | – | –
10 | C#C[C@]1(C)[C@@H]2OP(=O)(OCC(C)CC(=O)OC3CCCC3)OC[C@H]2O[C@H]1n1ccc(=O)[nH]c1=O (single isomer, unassigned) [Compound 3A] | – | > 50 µM | – | > 10 µM
11 | CO[C@H](CCO[P@@]1(=O)OC[C@H]2O[C@@H](n3ccc(=O)[nH]c3=O)[C@](C)(N)[C@@H]2O1)C(=O)OC(C)C [Compound 45A] | 1 to 10 µM | > 50 µM | – | –
12 | CCOC(=O)C(C)CCOP1(=O)OC[C@H]2O[C@@H](n3ccc(=O)[nH]c3=O)[C@](C)(N)[C@@H]2O1 (single isomer, unassigned) [Compound 5A] | – | > 50 µM | – | 1 to 10 µM
13 | C#C[C@]1(C)[C@@H]2O[P@@](=O)(OC[C@H](F)CC(=O)OC(C)C)OC[C@H]2O[C@H]1n1ccc(=O)[nH]c1=O [Compound 66A] | > 10 µM | > 50 µM | – | –
14 | C#C[C@]1(C)[C@@H]2O[P@](=O)(OCCC(CC)C(=O)OC3CCCC3)OC[C@H]2O[C@H]1n1ccc(=O)[nH]c1=O (stereo partly shown) [Compound 30B] | > 10 µM | > 50 µM | – | –
15 | CC(C)OC(=O)C(CCO[P@]1(=O)OC[C@H]2O[C@@H](n3ccc(=O)[nH]c3=O)[C@](C)(N)[C@@H]2O1)C(C)C (stereo partly shown) [Compound 24B] | > 10 µM | > 50 µM | – | –
16 | C#C[C@]1(C)[C@@H]2O[P@@](=O)(OCC[C@H](NC(=O)OC)C(=O)OC(C)C)OC[C@H]2O[C@H]1n1ccc(=O)[nH]c1=O [Compound 43A] | > 10 µM | > 50 µM | – | –
17 | CC(CCO[P@]1(=O)OC[C@H]2O[C@@H](n3ccc(=O)[nH]c3=O)[C@](C)(N)[C@@H]2O1)CC(=O)OC(C)C (stereo partly shown) [Compound 21B] | > 10 µM | > 50 µM | – | –
18 | C#C[C@]1(C)[C@@H]2O[P@](=O)(OCCC(C(=O)OC(C)C)C(C)C)OC[C@H]2O[C@H]1n1ccc(=O)[nH]c1=O (stereo partly shown) [Compound 32B] | > 10 µM | > 50 µM | – | –
19 | CC(C)OC(=O)[C@H](C)CCOP1(=O)OC[C@@]2(F)O[C@@H](n3ccc(=O)[nH]c3=O)[C@](C)(O)[C@@H]2O1 (stereo partly shown) [Compound 86A] | 1 to 10 µM | > 50 µM | – | –
20 | CC(C)OC(=O)C(C)CCOP1(=O)OC[C@H]2O[C@@H](n3ccc(=O)[nH]c3=O)[C@](C)(Cl)[C@@H]2O1 (single isomer, unassigned) [Compound 39B1] | ≤ 0.25 µM | > 50 µM | – | –
21 | C#C[C@]1(C)[C@@H]2O[P@@](=O)(OC[C@@H](CC(=O)OC(C)C)OC)OC[C@H]2O[C@H]1n1ccc(=O)[nH]c1=O [Compound 62A] | > 10 µM | > 50 µM | – | –
22 | CC(C)OC(=O)CS(=O)(=O)CCO[P@@]1(=O)OC[C@H]2O[C@@H](n3ccc(=O)[nH]c3=O)[C@](C)(N)[C@@H]2O1 [Compound 58A] | > 10 µM | < 50 µM | – | –

Row | Compound | EC50 (replicon cells (1b-Con1); Hepatitis C virus) | CC50 at 3 days [1] | CC50 [1] | EC50 (replicon cells (1b-Con1))
23 | C#C[C@]1(C)[C@@H]2O[P@@](=O)(OCC[C@@H](OC(C)=O)C(=O)OC(C)C)OC[C@H]2O[C@H]1n1ccc(=O)[nH]c1=O [Compound 50A] | > 10 µM | > 50 µM | – | –
24 | CC(C)OC(=O)[C@@H](C)CCO[P@@]1(=O)OC[C@H]2O[C@@H](n3cnc4c(N)ncnc43)[C@](C)(C#N)[C@@H]2O1 [Compound 71A] | > 10 µM | > 50 µM | – | –
25 | CCOC(=O)C1(CCO[P@]2(=O)OC[C@H]3O[C@@H](n4ccc(=O)[nH]c4=O)[C@](C)(N)[C@@H]3O2)CC1 [Compound 28B] | > 10 µM | > 50 µM | – | –
26 | C#C[C@]1(C)[C@@H]2O[P@@](=O)(OCCC(C)(C)C(=O)OC(C)C)OC[C@H]2O[C@H]1n1ccc(=O)[nH]c1=O [Compound 20A] | > 10 µM | > 50 µM | – | –
27 | C#C[C@]1(C)[C@@H]2O[P@](=O)(OCCC(CO)C(=O)OC(C)C)OC[C@H]2O[C@H]1n1ccc(=O)[nH]c1=O (stereo partly shown) [Compound 44B] | > 10 µM | > 50 µM | – | –
28 | C#C[C@@]1(O)[C@@H]2OP(=O)(OCC[C@H](C)C(=O)OC(C)C)OC[C@H]2O[C@H]1n1ccc(=O)[nH]c1=O (single isomer, unassigned) [Compound 7A2] | – | > 50 µM | – | 0.25 to 1 µM
29 | CC(CCOP1(=O)OC[C@H]2O[C@@H](n3ccc(=O)[nH]c3=O)[C@](C)(N)[C@@H]2O1)C(=O)OC1CCCC1 (stereo partly shown) [Compound 14A] | > 10 µM | > 50 µM | – | –
30 | COC(=O)N[C@@H](CCO[P@@]1(=O)OC[C@H]2O[C@@H](n3ccc(=O)[nH]c3=O)[C@](C)(N)[C@@H]2O1)C(=O)OC(C)C [Compound 42A] | > 10 µM | > 50 µM | – | –
31 | CC(C)OC(=O)C(C)(C)CCO[P@@]1(=O)OC[C@H]2O[C@@H](n3ccc(=O)[nH]c3=O)[C@](C)(N)[C@@H]2O1 [Compound 19A] | > 10 µM | > 50 µM | – | –
32 | CCCCCOC(=O)C(C)CCO[P@]1(=O)OC[C@H]2O[C@@H](n3ccc(=O)[nH]c3=O)[C@](C)(N)[C@@H]2O1 (stereo partly shown) [Compound 79B] | 1 to 10 µM | > 50 µM | – | –
33 | CC(C)OC(=O)[C@H](C)CCOP1(=O)OC[C@H]2O[C@@H](n3cnc4c(N)ncnc43)[C@](C)(F)[C@@H]2O1 (stereo partly shown) [Compound 88A] | ≤ 0.25 µM | > 50 µM | – | –
34 | C#C[C@]1(C)[C@@H]2OP(=O)(OCCC(C(=O)OC(C)C)C(=O)OC(C)C)OC[C@H]2O[C@H]1n1ccc(=O)[nH]c1=O (single isomer, unassigned) [Compound 36A] | – | > 50 µM | – | 0.25 to 1 µM
35 | C#C[C@]1(C)[C@@H]2O[P@](=O)(OC[C@@H](CC(=O)OC(C)C)OC)OC[C@H]2O[C@H]1n1ccc(=O)[nH]c1=O [Compound 62B] | > 10 µM | > 50 µM | – | –
36 | CO[C@H](CO[P@]1(=O)OC[C@H]2O[C@@H](n3ccc(=O)[nH]c3=O)[C@](C)(N)[C@@H]2O1)[C@@H](OC)C(=O)OC(C)C [Compound 48B] | > 10 µM | > 50 µM | – | –
37 | C#C[C@]1(C)[C@@H]2O[P@](=O)(OC[C@H](NC(=O)OC)C(=O)OC(C)C)OC[C@H]2O[C@H]1n1ccc(=O)[nH]c1=O [Compound 40B] | > 10 µM | > 50 µM | – | –
38 | C#C[C@@]1(O)[C@@H]2O[P@](=O)(OCCC(C(=O)OC(C)C)C(=O)OC(C)C)OC[C@H]2O[C@H]1n1ccc(=O)[nH]c1=O [Compound 59B] | ≤ 0.25 µM | > 50 µM | – | –
39 | CC(CCOP1(=O)OC[C@H]2O[C@@H](n3ccc(=O)[nH]c3=O)[C@](C)(N)[C@@H]2O1)C(=O)OC1CCCC1 (single isomer, unassigned) [Compound 14A1] | – | > 50 µM | – | > 10 µM
40 | C#C[C@]1(C)[C@@H]2O[P@](=O)(OCCC(C)(C)C(=O)OC(C)C)OC[C@H]2O[C@H]1n1ccc(=O)[nH]c1=O [Compound 20B] | > 10 µM | > 50 µM | – | –
41 | CO[C@@H](CO[P@]1(=O)OC[C@H]2O[C@@H](n3ccc(=O)[nH]c3=O)[C@](C)(N)[C@@H]2O1)CC(=O)OC(C)C [Compound 63B] | > 10 µM | > 50 µM | – | –
42 | CC(C)OC(=O)C(CCO[P@@]1(=O)OC[C@H]2O[C@@H](n3cnc4c(N)ncnc43)[C@](C)(Cl)[C@@H]2O1)C(=O)OC(C)C [Compound 70A] | 0.25 to 1 µM | > 50 µM | – | –
43 | CO[C@H](CO[P@@]1(=O)OC[C@H]2O[C@@H](n3ccc(=O)[nH]c3=O)[C@](C)(N)[C@@H]2O1)CC(=O)OC(C)C [Compound 61A] | > 10 µM | > 50 µM | – | –
44 | CC(C)OC(=O)C(CCO[P@@]1(=O)OC[C@H]2O[C@@H](n3ccc(=O)[nH]c3=O)[C@](C)(N)[C@@H]2O1)c1ccccc1 (stereo partly shown) [Compound 33A] | > 10 µM | > 50 µM | – | –
